Data: patent US12208143B2, “Compositions and methods for transport across the blood brain barrier” (OPHIDION INC., priority 2011, dated 2025)
“Also recorded” adds a separate entry of the source. Read-outs that look alike come from different tables or passages of the source.

Key:
primary cortical neurons = assay type: cell-based, mouse
lynx1 mRNA [1] = experiment: Knock-down of lynx1 mRNA after delivery of anti-lynx1 siRNA into cultured cortical neurons via peptide variant-siRNA complexes (qPCR); assay type: cell-based, mouse
lynx1 mRNA [2] = experiment: siRNA uptake of peptide-lynx1 siRNA complexes into primary neuronal cultures (lynx1 mRNA knock-down, qPCR); assay type: cell-based; settings: 25 uM peptide + 2.5 uM lynx1 siRNA (siRNA1), poly-D arginine linker, 24 hours, primary cortical mouse neurons, FIG. 8
lynx1 mRNA [3] = experiment: lynx1 knock-down by lynx1 siRNA species in cultured cortical neurons (TaqMan qPCR); assay type: cell-based, mouse; settings: siRNA transfected by Accell method, lynx1 mRNA relative to mock, FIG. 6

Sequence: EVMEQSAGIMYRKS [lynx2-loop2]
- binding of biotinylated peptide to neurons in culture (primary cortical neurons): did not reliably bind to neurons

Sequence: MTTRTYATPYRMKVRKS [Mutant 2]
- knock-down of lynx1 mRNA relative to the lynx1-loop2 peptide-siRNA complex (lynx1 mRNA [1]): significantly reduces lynx1-loop2 peptide ability to transport siRNA into neurons; also recorded: not as effective for decreasing lynx1 expression

Sequence: GCACUGAUUUGAUAGAAUU (siRNA; purchased Accell siRNA, chemistry not given here) [siRNA1, SMART pool siRNA A-062811-13 LYNX1, Thermo Scientific/Dharmacon]
- reduction in lynx1 mRNA compared to no siRNA (Mock) (lynx1 mRNA [2]): no significant reduction in lynx1 mRNA levels
- knock-down of lynx1 mRNA relative to the lynx1-loop2 peptide-siRNA complex (lynx1 mRNA [1]; 5 μM peptide + 0.5 μM anti-lynx1 siRNA, 24 hours, cultured cortical neurons, lynx1-loop2 set to 100%, siRNA alone set at 0%, FIG. 10): did not result in knock-down of lynx1 mRNA
- reduction of lynx1 expression (lynx1 mRNA [3]): more than 90%

Sequence: MTWCDYFTPSRGKVRKS [Mutant 1]
- decrease of lynx1 mRNA compared to RVG29 and RVG19 complexes (lynx1 mRNA [1]): more effective at decreasing levels of lynx1 mRNA compared to RVG29 and RVG19; also recorded: decrease lynx1 mRNA in cultured cortical neurons more effectively than both RVG29 and RVG19
- knock-down of lynx1 mRNA relative to the lynx1-loop2 peptide-siRNA complex (lynx1 mRNA [1]): as capable of translocating siRNA into neurons as is lynx1-loop2; also recorded: enhanced the knock-down compared to SEQ ID NO:2 peptide; also recorded: capable of decreasing lynx1 expression in cultured cortical neurons as well as a peptide having the sequence of SEQ ID NO:2

Sequence: MTTRTYFTPYAMADRKS [Mutant 3]
- knock-down of lynx1 mRNA relative to the lynx1-loop2 peptide-siRNA complex (lynx1 mRNA [1]): abolish lynx1-loop2 peptide function; also recorded: not as effective for decreasing lynx1 expression
